Results taken from the supplement of paper PMC10132981, “Formate overflow drives toxic folate trapping in MTHFD1 inhibited cancer cells” (Nature Metabolism, 2023).

What was measured:
SW620 [1] = assay: cell viability relative to lowest-dose well (resazurin, 96 h); higher = more viable; conditions: RPMI + 10% FBS
Outline: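 In 384-well plates, 50 µl RPMI with 10% FBS plus a metabolite supplement received 500 HCT116 or 1,000 SW620 cells per well. Dilution series of compounds, taken from 10 mM DMSO stocks, were added and the plates kept 96 h at 37 °C, 5% CO2. Viability, reported as percent of the lowest-dose well across independent replicate cultures, was measured as resazurin-to-resorufin conversion by fluorescence at 595 nm. Viability was read by resazurin-to-resorufin conversion and normalised to the lowest-dose vehicle well (=100%).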

SW620 MTHFD2-/- = assay: EC50 for viability (resazurin, 96 h); conditions: RPMI+GlutaMAX (5% dFBS, 1% P/S); metabolite supplement: Hypoxanthine + Formate
SW620 WT = assay: EC50 for viability (resazurin, 96 h); conditions: RPMI+GlutaMAX (5% dFBS, 1% P/S)
SW620 [2] = assay: EC50 for viability (resazurin, 96 h)
SW620 MTHFD2 -/- = assay: EC50 for viability (resazurin, 96 h); conditions: RPMI+GlutaMAX (5% dFBS, 1% P/S)

Cc1c(N2CCN(C)[C@@H](C)C2)ccc2c3c(c(=O)oc12)CN(C(=O)c1ccc(NS(C)(=O)=O)c(OC(F)(F)F)c1)CC3
Conditions	EC50 for viability [nM]	cell viability [%]
SW620 [1], 0.001 µM, metabolite supplement: 1mM sodium formate	–	100
SW620 [1], 0.001 µM, metabolite supplement: 50uM thymidine	–	99.1
SW620 [1], 0.001 µM, metabolite supplement: 50uM thymidine + 1mM sodium formate	–	99.4
SW620 [1], 0.001 µM, metabolite supplement: 50uM thymidine + 250uM hypoxanthine	–	100
SW620 [1], 0.001 µM, metabolite supplement: 250uM hypoxanthine	–	100
SW620 [1], 0.001 µM, metabolite supplement: vehicle	–	97
SW620 [1], 0.00301 µM, metabolite supplement: 1mM sodium formate	–	98.27
SW620 [1], 0.00301 µM, metabolite supplement: 50uM thymidine	–	97.2
SW620 [1], 0.00301 µM, metabolite supplement: 50uM thymidine + 1mM sodium formate	–	102
SW620 [1], 0.00301 µM, metabolite supplement: 50uM thymidine + 250uM hypoxanthine	–	102.3
SW620 [1], 0.00301 µM, metabolite supplement: 250uM hypoxanthine	–	96.6
SW620 [1], 0.00301 µM, metabolite supplement: vehicle	–	97.3
SW620 [1], 0.00903 µM, metabolite supplement: 1mM sodium formate	–	97.8
SW620 [1], 0.00903 µM, metabolite supplement: 50uM thymidine	–	96
SW620 [1], 0.00903 µM, metabolite supplement: 50uM thymidine + 1mM sodium formate	–	101
SW620 [1], 0.00903 µM, metabolite supplement: 50uM thymidine + 250uM hypoxanthine	–	102
SW620 [1], 0.00903 µM, metabolite supplement: 250uM hypoxanthine	–	98.9
SW620 [1], 0.00903 µM, metabolite supplement: vehicle	–	96.4
SW620 [1], 0.0271 µM, metabolite supplement: 1mM sodium formate	–	100
SW620 [1], 0.0271 µM, metabolite supplement: 50uM thymidine	–	99.6
SW620 [1], 0.0271 µM, metabolite supplement: 50uM thymidine + 1mM sodium formate	–	102
SW620 [1], 0.0271 µM, metabolite supplement: 50uM thymidine + 250uM hypoxanthine	–	104
SW620 [1], 0.0271 µM, metabolite supplement: 250uM hypoxanthine	–	99.5
SW620 [1], 0.0271 µM, metabolite supplement: vehicle	–	97.6
SW620 [1], 0.0816 µM, metabolite supplement: 1mM sodium formate	–	101
SW620 [1], 0.0816 µM, metabolite supplement: 50uM thymidine	–	97.1
SW620 [1], 0.0816 µM, metabolite supplement: 50uM thymidine + 1mM sodium formate	–	105
SW620 [1], 0.0816 µM, metabolite supplement: 50uM thymidine + 250uM hypoxanthine	–	107
SW620 [1], 0.0816 µM, metabolite supplement: 250uM hypoxanthine	–	97.4
SW620 [1], 0.0816 µM, metabolite supplement: vehicle	–	95.4
SW620 [1], 0.245 µM, metabolite supplement: 1mM sodium formate	–	97.7
SW620 [1], 0.245 µM, metabolite supplement: 50uM thymidine	–	85.4
SW620 [1], 0.245 µM, metabolite supplement: 50uM thymidine + 1mM sodium formate	–	104
SW620 [1], 0.245 µM, metabolite supplement: 50uM thymidine + 250uM hypoxanthine	–	107.8
SW620 [1], 0.245 µM, metabolite supplement: 250uM hypoxanthine	–	99.9
SW620 [1], 0.245 µM, metabolite supplement: vehicle	–	86.4
SW620 [1], 0.737 µM, metabolite supplement: 1mM sodium formate	–	95.9
SW620 [1], 0.737 µM, metabolite supplement: 50uM thymidine	–	69.5
SW620 [1], 0.737 µM, metabolite supplement: 50uM thymidine + 1mM sodium formate	–	100
SW620 [1], 0.737 µM, metabolite supplement: 50uM thymidine + 250uM hypoxanthine	–	108
SW620 [1], 0.737 µM, metabolite supplement: 250uM hypoxanthine	–	97
SW620 [1], 0.737 µM, metabolite supplement: vehicle	–	71.13
SW620 [1], 2.21 µM, metabolite supplement: 1mM sodium formate	–	89
SW620 [1], 2.21 µM, metabolite supplement: 50uM thymidine	–	61.5
SW620 [1], 2.21 µM, metabolite supplement: 50uM thymidine + 1mM sodium formate	–	102
SW620 [1], 2.21 µM, metabolite supplement: 50uM thymidine + 250uM hypoxanthine	–	106
SW620 [1], 2.21 µM, metabolite supplement: 250uM hypoxanthine	–	84.7
SW620 [1], 2.21 µM, metabolite supplement: vehicle	–	63.2
SW620 [1], 6.65 µM, metabolite supplement: 1mM sodium formate	–	62.4
SW620 [1], 6.65 µM, metabolite supplement: 50uM thymidine	–	58.1
SW620 [1], 6.65 µM, metabolite supplement: 50uM thymidine + 1mM sodium formate	–	101
SW620 [1], 6.65 µM, metabolite supplement: 50uM thymidine + 250uM hypoxanthine	–	102
SW620 [1], 6.65 µM, metabolite supplement: 250uM hypoxanthine	–	66.4
SW620 [1], 6.65 µM, metabolite supplement: vehicle	–	60.8
SW620 [1], 20 µM, metabolite supplement: 1mM sodium formate	–	39.2
SW620 [1], 20 µM, metabolite supplement: 50uM thymidine	–	54.3
SW620 [1], 20 µM, metabolite supplement: 50uM thymidine + 1mM sodium formate	–	89.9
SW620 [1], 20 µM, metabolite supplement: 50uM thymidine + 250uM hypoxanthine	–	88.6
SW620 [1], 20 µM, metabolite supplement: 250uM hypoxanthine	–	44.2
SW620 [1], 20 µM, metabolite supplement: vehicle	–	55
SW620 [2], HPLM (5% dFBS, 1% P/S), metabolite supplement: Vehicle	> 10000	–
SW620 [2], RPMI+GlutaMAX (5% FBS, 1% P/S), metabolite supplement: Vehicle	> 10000	–
SW620 [2], RPMI+GlutaMAX (5% dFBS, 1% P/S), metabolite supplement: 50 µM Hypoxanthine	> 10000	–
SW620 [2], RPMI+GlutaMAX (5% dFBS, 1% P/S), metabolite supplement: Vehicle	553	–
SW620 [2], RPMI+GlutaMAX (10% FBS, 1% P/S), metabolite supplement: Hypoxanthine	7050	–
SW620 [2], RPMI+GlutaMAX (10% FBS, 1% P/S), metabolite supplement: Sodium Formate	6170	–
SW620 [2], RPMI+GlutaMAX (10% FBS, 1% P/S), metabolite supplement: Thymidine	447	–
SW620 [2], RPMI+GlutaMAX (10% FBS, 1% P/S), metabolite supplement: Thymidine + Hypoxanthine	> 10000	–
SW620 [2], RPMI+GlutaMAX (10% FBS, 1% P/S), metabolite supplement: Thymidine + Sodium Formate	> 10000	–

Conditions	EC50 for viability [nM]
SW620 MTHFD2-/-	> 10000

EC50 for viability [nM]
Conditions	metabolite supplement: Adenine	metabolite supplement: Adenosine	metabolite supplement: Guanosine	metabolite supplement: Hypoxanthine	metabolite supplement: Sodium Formate	metabolite supplement: Thymidine	metabolite supplement: Thymidine + Sodium Formate	metabolite supplement: Vehicle
SW620 MTHFD2 -/-	–	–	–	–	> 10000	86.3	0.383	178
SW620 WT	> 10000	> 10000	2970	> 10000	–	1070	–	889
